# Read-outs that look alike come from different tables or passages of the source. Where a SMILES comes first, the peptide text is derived from it. [ ]: non-standard residue; d: D form. Nle = CCCC[C@H](N)C(=O)O; Abu = CC[C@H](N)C(=O)O
# Columns and labels:
# botox A [1] = target: T1, botox A (Clostridium botulinum, UniProt P0DPI1)
# botox A [2] = target: T1, botox A; format: biochemical; parameters: Rate (initial rate of peptide hydrolysis) / Rate (initial rate of hydrolysis) In AcBSA: unit not given here; conditions: for kcat: in 1/s
# botox A [3] = target: T1, botox A; assay: biochemical; conditions: for inhibition at 1000 µM: read-out: inhibition of hydrolysis of peptide [1-17]
# T1 sequence (P0DPI1 2-448 limits assumed): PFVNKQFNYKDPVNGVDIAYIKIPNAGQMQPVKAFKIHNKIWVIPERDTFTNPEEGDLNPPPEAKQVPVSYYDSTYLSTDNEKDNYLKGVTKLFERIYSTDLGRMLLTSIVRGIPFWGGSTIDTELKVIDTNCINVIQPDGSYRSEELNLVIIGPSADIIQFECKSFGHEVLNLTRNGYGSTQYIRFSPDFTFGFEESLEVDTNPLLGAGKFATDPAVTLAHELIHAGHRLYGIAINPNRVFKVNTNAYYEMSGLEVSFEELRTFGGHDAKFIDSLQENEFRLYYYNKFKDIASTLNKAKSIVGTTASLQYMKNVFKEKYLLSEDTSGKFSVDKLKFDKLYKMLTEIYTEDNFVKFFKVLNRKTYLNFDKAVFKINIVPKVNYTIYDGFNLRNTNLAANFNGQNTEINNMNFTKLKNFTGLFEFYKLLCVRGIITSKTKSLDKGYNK
compound,measurement,setting,value
gelatin,effect on hydrolysis of substrate peptides by botox A,botox A [1],no effect
"Ac-SNKTRIDEANQRLTKML-NH2 [A13L, S N K T R I D E A N Q R L T K M L]","hydrolysis by botox A, described in words",botox A [2],below the limits of detection
same,Ki,botox A [3],1000 to 2000 µM
same,inhibition at 1000 µM,botox A [3],30%
ovalbumin,effect on hydrolysis of substrate peptides by botox A,botox A [1],no effect
"CCCC[C@H](NC(=O)[C@H](CCCCN)NC(=O)[C@@H](NC(=O)[C@H](C)NC(=O)[C@H](CCCNC(=N)N)NC(=O)[C@H](CCC(N)=O)NC(=O)[C@H](CC(N)=O)NC(=O)[C@H](C)NC(=O)[C@H](CCC(=O)O)NC(=O)[C@H](CC(=O)O)NC(=O)[C@@H](NC(=O)[C@H](CCCNC(=N)N)NC(=O)[C@@H](NC(=O)[C@H](CCCCN)NC(=O)[C@H](CC(N)=O)NC(=O)[C@H](CO)NC(C)=O)[C@@H](C)O)[C@@H](C)CC)[C@@H](C)O)C(=O)N[C@@H](CC(C)C)C(N)=O [M16X, S N K T R I D E A N Q R A T K X L] (Ac-SNKTRIDEANQRATK[Nle]L-NH2)","hydrolysis by botox A, described in words",botox A [2],hydrolyzed somewhat faster than the native-sequence peptide
same,kcat,botox A [2],30 ± 1
same,Km,botox A [2]; read-out: Km,580 ± 20 µM
"Ac-SNKTRIDEAQQRATKML-NH2 [N10Q, S N K T R I D E A Q Q R A T K M L]","hydrolysis by botox A, described in words",botox A [2],No hydrolysis
lysozyme,effect on hydrolysis of substrate peptides by botox A,botox A [1],no effect
"CC[C@H](NC(=O)[C@H](CC(N)=O)NC(=O)[C@H](C)NC(=O)[C@H](CCC(=O)O)NC(=O)[C@H](CC(=O)O)NC(=O)[C@@H](NC(=O)[C@H](CCCNC(=N)N)NC(=O)[C@@H](NC(=O)[C@H](CCCCN)NC(=O)[C@H](CC(N)=O)NC(=O)[C@H](CO)NC(C)=O)[C@@H](C)O)[C@@H](C)CC)C(=O)N[C@@H](CCCNC(=N)N)C(=O)N[C@@H](C)C(=O)N[C@H](C(=O)N[C@@H](CCCCN)C(=O)N[C@@H](CCSC)C(=O)N[C@@H](CC(C)C)C(N)=O)[C@@H](C)O [Q11B, S N K T R I D E A N B R A T K M L] (Ac-SNKTRIDEAN[Abu]RATKML-NH2)","hydrolysis by botox A, described in words",botox A [2],slowed but did not eliminate hydrolysis
same,kcat,botox A [2],7.7 ± 0.2
same,Km,botox A [2]; read-out: Km,830 ± 50 µM
ribonuclease,effect on hydrolysis of substrate peptides by botox A,botox A [1],no effect
"Ac-SNKTRIDEANQRATK-NH2 [[1-15], S N K T R I D E A N Q R A T K]",Relative Rate (initial hydrolysis rates relative to peptide [1-17]),botox A [2],0.03
same,"hydrolysis by botox A, described in words",botox A [2],very slow rate of hydrolysis
same,kcat as percent of that for peptide [1-17],botox A [2],2-3%
same,kcat,botox A [2],~1.0
same,inhibition at 1000 µM,botox A [3],17%
"CC[C@H](NC(=O)[C@H](C)NC(=O)[C@H](CCCNC(=N)N)NC(=O)[C@H](CCC(N)=O)NC(=O)[C@H](CC(N)=O)NC(=O)[C@H](C)NC(=O)[C@H](CCC(=O)O)NC(=O)[C@H](CC(=O)O)NC(=O)[C@@H](NC(=O)[C@H](CCCNC(=N)N)NC(=O)[C@@H](NC(=O)[C@H](CCCCN)NC(=O)[C@H](CC(N)=O)NC(=O)[C@H](CO)NC(C)=O)[C@@H](C)O)[C@@H](C)CC)C(=O)N[C@@H](CCCCN)C(=O)N[C@@H](CCSC)C(=O)N[C@@H](CC(C)C)C(N)=O [T14B, S N K T R I D E A N Q R A B K M L] (Ac-SNKTRIDEANQRA[Abu]KML-NH2)",Relative Rate (initial hydrolysis rates relative to peptide [1-17]),botox A [2],1.20
same,"hydrolysis by botox A, described in words",botox A [2],good substrate
same,kcat,botox A [2],35 ± 2
same,Km,botox A [2]; read-out: Km,1300 ± 100 µM
"Ac-SNKTRIDEANQRATAML-NH2 [K15A, S N K T R I D E A N Q R A T A M L]","hydrolysis by botox A, described in words",botox A [2],significantly lower hydrolysis rate
same,kcat,botox A [2],~8.0
same,Km,botox A [2]; read-out: Km,~1000 µM
"CC[C@H](NC(=O)[C@H](CCCNC(=N)N)NC(=O)[C@H](CCC(N)=O)NC(=O)[C@H](CC(N)=O)NC(=O)[C@H](C)NC(=O)[C@H](CCC(=O)O)NC(=O)[C@H](CC(=O)O)NC(=O)[C@@H](NC(=O)[C@H](CCCNC(=N)N)NC(=O)[C@@H](NC(=O)[C@H](CCCCN)NC(=O)[C@H](CC(N)=O)NC(=O)[C@H](CO)NC(C)=O)[C@@H](C)O)[C@@H](C)CC)C(=O)N[C@H](C(=O)N[C@@H](CCCCN)C(=O)N[C@@H](CCSC)C(=O)N[C@@H](CC(C)C)C(N)=O)[C@@H](C)O [A13B, S N K T R I D E A N Q R B T K M L] (Ac-SNKTRIDEANQR[Abu]TKML-NH2)",Relative Rate (initial hydrolysis rates relative to peptide [1-17]),botox A [2],.79
same,kcat,botox A [2],39 ± 2
same,Km,botox A [2]; read-out: Km,1800 ± 100 µM
"CC[C@H](NC(=O)[C@H](CCCNC(=N)N)NC(=O)[C@H](CC(N)=O)NC(=O)[C@H](CO)NC(C)=O)C(=O)N[C@@H](CCCNC(=N)N)C(=O)N[C@H](C(=O)N[C@@H](CC(=O)O)C(=O)N[C@@H](CCC(N)=O)C(=O)N[C@@H](C)C(=O)N[C@@H](CC(N)=O)C(=O)N[C@@H](CCC(N)=O)C(=O)N[C@@H](CCCNC(=N)N)C(=O)N[C@@H](C)C(=O)N[C@H](C(=O)N[C@@H](CCCNC(=N)N)C(=O)N[C@@H](CCSC)C(=O)N[C@@H](CC(C)C)C(N)=O)[C@@H](C)O)[C@@H](C)CC [peptide 7, S N R B R I D Q A N Q R A T R M L] (Ac-SNR[Abu]RIDQANQRATRML-NH2)",Kcat In AcBSA,botox A [2],73 s⁻¹
same,Rate (initial rate of hydrolysis) In AcBSA,botox A [2],22
same,Rate (initial rate of hydrolysis) In BSA,botox A [2],14
same,Rate (initial rate of peptide hydrolysis),botox A [2],14.1 ± 0.7
same,Relative Rate,botox A [2],1.9
same,Km,botox A [2]; read-out: Km In AcBSA,310 µM
"Ac-SNKTRIDEAAQRATKML-NH2 [N10A, S N K T R I D E A A Q R A T K M L]","hydrolysis by botox A, described in words",botox A [2],only very slowly cleaved
same,kcat as percent of that for peptide [1-17],botox A [2],about 4%
same,kcat,botox A [2],1.8 ± 0.1
same,inhibition at 1000 µM,botox A [3],30%
"Ac-SNKTRIDEANQRATKML-NH2 [[1-17], S N K T R I D E A N Q R A T K M L]",Kcat In AcBSA,botox A [2],41 s⁻¹
same,Kcat In BSA,botox A [2],47 s⁻¹
same,Rate (initial rate of hydrolysis) In AcBSA,botox A [2],10
same,Rate (initial rate of hydrolysis) In BSA,botox A [2],8
same,Rate (initial rate of peptide hydrolysis),botox A [2],7.6 ± 0.3
same,Relative Rate,botox A [2],1.0
same,kcat,botox A [2],47 ± 2
same,Km,botox A [2]; read-out: Km,1700 ± 100 µM
same,Km,botox A [2]; read-out: Km In AcBSA,590 µM
"Ac-SNKTRIDEANQRATKAL-NH2 [M16A, S N K T R I D E A N Q R A T K A L]",Relative Rate (initial hydrolysis rates relative to peptide [1-17]),botox A [2],.38
same,decrease in kcat compared with peptide [1-17],botox A [2],~50%
same,kcat,botox A [2],25 ± 1
same,Km,botox A [2]; read-out: Km,1900 ± 100 µM

# Source: patent US5965699A (priority 1996, dated 1999)
